Experimental data published in patent US9278958B2, “Anti-cancer compounds” (KATHOLIEKE UNIVERSITEIT LEUVEN, priority 2012, dated 2016).
Read-outs that look alike come from different tables or passages of the source.

Experiments:
CEM cells = assay: Cytostatic assay, CEM; assay type: cell-based; conditions: for Ratio (tumor cell selectivity): ratio IC50 HeLa / IC50 CEM
Experimental: (§1) To each well of a 96-well microtiter plate were added 5-7.5×10^4 cells and a given amount of the test compound. The cells were allowed to proliferate for 48 h to 96 h (depending on the nature of the cell line) at 37° C. in a humidified CO2-controlled atmosphere. At the end of the incubation period, the cells were counted in a Coulter Counter (Coulter Electronics Ltd, Harpenden Herts, United Kingdom).

[1] = test system: HeLa cervix carcinoma cells; assay: Cytostatic assay, HeLa; assay type: cell-based, human
Experimental: as §1

[2] = Homo sapiens, HeLa cells, Table 7, 5-arylthiomethyl-substituted 2-amino-3-carboxymethylthiophenes, read-out: IC50 (μM) HeLa
[3] = Homo sapiens, CCRF-CEM, CEM cells, Table 7, 5-arylthiomethyl-substituted 2-amino-3-carboxymethylthiophenes, read-out: IC50 (μM) CEM
[4] = Homo sapiens, CCRF-CEM, Table 1a, read-out: IC50 μM (CEM)
[5] = Table 1b, read-out: IC50 (μM) (HeLa)
[6] = Table 1b, read-out: IC50 (μM) (CEM)
[7] = Homo sapiens, Table 1b, read-out: IC50 (μM) (HeLa)
[8] = Homo sapiens, CCRF-CEM, Table 1b, read-out: IC50 (μM) (CEM)
[9] = HeLa cells, Table 7, 5-arylthiomethyl-substituted 2-amino-3-carboxymethylthiophenes, read-out: IC50 (μM) HeLa
[10] = CEM cells, Table 7, 5-arylthiomethyl-substituted 2-amino-3-carboxymethylthiophenes, read-out: IC50 (μM) CEM
[11] = Homo sapiens, HeLa cells, Table 6, 5-alkyl-substituted 2-aminothiophenes, read-out: IC50 (μM) HeLa
[12] = Homo sapiens, CCRF-CEM, CEM cells, Table 6, 5-alkyl-substituted 2-aminothiophenes, read-out: IC50 (μM) CEM

Row | Molecule | IC50 [1, 2] [µM] | IC50 (CEM cells; [3]) [µM] | Ratio (tumor cell selectivity) (CEM cells; Table 7) | further results
1 | 2-Amino-5-(2-(4-methoxyphenyl)ethyl)thiophene-3-carboxylate [TJ8] | – | – | – | IC50 (CEM cells; Table 1a, read-out: IC50 μM (CEM)): 31 µM
2 | COC(=O)c1cc(CSc2ccc(Cl)cc2)sc1N [Compound D4, Methyl 2-amino-5-((4-chlorophenylthio)methyl)thiophene-3-carboxylate] | 42 | 1.7 | 25 | –
3 | COc1ccc(CCc2cc(C(N)=O)c(N)s2)cc1 [TJ9, 2-Amino-5-(2-(4-methoxyphenyl)ethyl)thiophene-3-carboxamide] | – | – | – | IC50 (CEM cells; [4]): 39 µM
4 | COC(=O)c1cc(CSc2ccccc2)sc1N1C(=O)c2ccccc2C1=O [TJ86, Methyl 2-phthalimido-5-(2-(phenyl)sulfanylmethyl)thiophene-3-carboxylate] | – | – | – | IC50 [1, 5]: 184 ± 6 µM; IC50 (CEM cells; [6]): 13 ± 7 µM
5 | COC(=O)c1cc(CSCc2ccc(OC)cc2)sc1N1C(=O)c2ccccc2C1=O [TJ127, Methyl 2-phthalimido-5-(2-(4-methoxybenzyl)sulfanylmethyl)thiophene-3-carboxylate] | – | – | – | IC50 [1, 5]: 111 ± 20 µM; IC50 (CEM cells; [6]): 25 ± 8 µM
6 | COC(=O)c1cc(CNc2ccc(OC)cc2)sc1N [TJ51, Methyl 2-amino-5-(2-(4-methoxyphenyl)aminomethyl)thiophene-3-carboxylate] | – | – | – | IC50 [1, 5]: 78 ± 15 µM; IC50 (CEM cells; [6]): 96 ± 16 µM
7 | COC(=O)c1cc(CSc2ccc(OC)cc2)sc1N1C(=O)c2ccccc2C1=O [TJ21, Methyl 2-phthalimido-5-(2-(4-methoxyphenyl)sulfanylmethyl)thiophene-3-carboxylate] | – | – | – | IC50 [1, 5]: 112 ± 2 µM; IC50 (CEM cells; [6]): 4.9 ± 1.4 µM
8 | COC(=O)c1cc(CSc2ccc(OC)cc2)sc1N [TJ22, Methyl 2-amino-5-(2-(4-methoxyphenyl)sulfanylmethyl)thiophene-3-carboxylate] | – | – | 93 | IC50 [1, 9]: 58 µM; IC50 [1, 5]: 58 ± 1 µM; IC50 (CEM cells; [10]): 0.62 µM; IC50 (CEM cells; [6]): 0.62 ± 0.33 µM
9 | COC(=O)c1cc(CSc2ccccc2OC)sc1N [Compound D6, Methyl 2-amino-5-((2-methoxyphenylthio)methyl)thiophene-3-carboxylate] | 94 | 17 | 6 | –
10 | CNC(=O)c1cc(CCc2ccc(OC)cc2)sc1N [TJ19, N-Methyl 2-amino-5-(2-(4-methoxyphenyl)ethyl)thiophene-3-carboxamide] | – | – | – | IC50 (CEM cells; [4]): 31 µM
11 | COC(=O)c1cc(CSc2ccccc2C)sc1N [Compound D3, Methyl 2-amino-5-(o-tolylthiomethyl)thiophene-3-carboxylate] | 71 | 2 | 36 | –
12 | COC(=O)c1cc(CSc2cccc(C)c2)sc1N [TJ54P, Methyl 2-amino-5-(2-(3-methylphenyl)sulfanylmethyl)thiophene-3-carboxylate] | – | – | 26 | IC50 [1, 9]: 108 µM; IC50 [1, 5]: 108 µM; IC50 (CEM cells; [10]): 4.1 µM; IC50 (CEM cells; [6]): 4.1 ± 1.7 µM
13 | COC(=O)c1cc(CSc2ccccc2)sc1N [TJ4, Methyl 2-amino-5-(2-(phenyl)sulfanylmethyl)thiophene-3-carboxylate] | – | – | 83 | IC50 [1, 9]: 108 µM; IC50 [1, 5]: 108 ± 7 µM; IC50 (CEM cells; [10]): 1.3 µM; IC50 (CEM cells; [6]): 1.3 ± 0.6 µM
14 | COC(=O)c1cc(CSc2cccc(C(=O)O)c2)sc1N [TJ53, 3-((5-amino-4-(methoxycarbonyl)thiophen-2-yl)methylthio)benzoic acid] | 75 | 124 | ≦1 | –
15 | CCc1cc(C(=O)OC)c(N)s1 [TJ157, Methyl 2-amino-5-ethylthiophene-3-carboxylate] | – | – | – | IC50 [1, 11]: 180 µM; IC50 (CEM cells; [12]): 175 µM; Ratio (tumor cell selectivity) (CEM cells; Table 6): 1
16 | COC(=O)c1cc(CCCCl)sc1N [TJ168D, Methyl 2-amino-5-(3-chloropropyl)thiophene-3-carboxylate] | – | – | – | IC50 [1, 11]: 150 µM; IC50 (CEM cells; [12]): 26 µM; Ratio (tumor cell selectivity) (CEM cells; Table 6): 6
17 | CNc1sc(CCc2ccc(OC)cc2)cc1C(=O)OC [TJ6A, Methyl 2-methylamino-5-(2-(4-methoxyphenyl)ethyl)thiophene-3-carboxylate] | – | – | – | IC50 (CEM cells; [4]): 23 µM
18 | COC(=O)c1ccccc1SCc1cc(C(=O)OC)c(N)s1 [Compound D7, Methyl 2-amino-5-((2-(methoxycarbonyl)phenylthio)methyl)thiophene-3-carboxylate] | 190 | 27 | 7 | –
19 | COC(=O)c1cc(Cc2ccccc2)sc1N [TJ109, Methyl 2-amino-5-benzylthiophene-3-carboxylate] | – | – | – | IC50 (CEM cells; [4]): 8.4 µM
20 | CCCc1cc(C(=O)OC)c(N)s1 [TJ190, Methyl 2-amino-5-propylthiophene-3-carboxylate] | – | – | – | IC50 [1, 11]: 61 µM; IC50 (CEM cells; [12]): 6.9 µM; Ratio (tumor cell selectivity) (CEM cells; Table 6): 9
21 | COC(=O)c1cc(CSc2cccc(C)c2)sc1N1C(=O)c2ccccc2C1=O [TJ54SM, Methyl 2-phthalimido-5-(2-(3-methylphenyl)sulfanylmethyl)thiophene-3-carboxylate] | – | – | – | IC50 [1, 5]: 121 ± 13 µM; IC50 (CEM cells; [6]): 6.9 ± 0.7 µM
22 | COC(=O)c1cc(CCc2ccc(OC)cc2)sc1N(C)C [TJ6B, Methyl 2-dimethylamino-5-(2-(4-methoxyphenyl)ethyl)thiophene-3-carboxylate] | – | – | – | IC50 (CEM cells; [4]): 18 µM
23 | COC(=O)c1cc(CSc2ccc(F)cc2)sc1N [Compound D10, Methyl 2-amino-5-((4-fluorophenylthio)methyl)thiophene-3-carboxylate] | 102 | 3.1 | 33 | –
24 | COC(=O)c1cc(COc2ccc(OC)cc2)sc1N [TJ25, Methyl 2-amino-5-(2-(4-methoxyphenyl)oxymethyl)thiophene-3-carboxylate] | – | – | – | IC50 [1, 5]: 68 ± 13 µM; IC50 (CEM cells; [6]): 43 ± 13 µM
25 | COC(=O)c1csc(CCc2ccc(OC)cc2)c1 [TJ7, Methyl 5-(2-(4-methoxyphenyl)ethyl)thiophene-3-carboxylate] | – | – | – | IC50 (CEM cells; [4]): 87 µM
26 | CCCCSCc1cc(C(=O)OC)c(N2C(=O)c3ccccc3C2=O)s1 [TJ119, Methyl 2-phthalimido-5-(2-(butyl)sulfanylmethyl)thiophene-3-carboxylate] | – | – | – | IC50 ([1]; Table 1c, read-out: IC50 (μM) HeLa): 104 ± 1 µM; IC50 (CEM cells; Table 1c, read-out: IC50 (μM) CEM): 6.6 ± 3.2 µM

Now from value to molecule, other results behind:

Row | IC50 [1, 2] [µM] | IC50 (CEM cells; [3]) [µM] | Molecule | Ratio (tumor cell selectivity) (CEM cells; Table 7) | further results
27 | 102 | 4.9 | COC(=O)c1cc(CSCc2ccco2)sc1N [TJ117, Methyl 2-amino-5-((furan-2-ylmethylthio)methyl)thiophene-3-carboxylate] | 21 | IC50 [1, 7]: 102 ± 6 µM; IC50 (CEM cells; [8]): 4.9 ± 0.1 µM
28 | 72 | 1.5 | COC(=O)c1cc(CSc2ccc(C)cc2)sc1N [TJ55, Methyl 2-amino-5-((4-methylphenylthio)methyl)thiophene-3-carboxylate] | 48 | IC50 [1, 7]: 72 ± 30 µM; IC50 (CEM cells; [8]): 1.5 ± 0.3 µM
29 | 99 | 3.3 | COC(=O)c1cc(CSCc2cccs2)sc1N [TJ118, Methyl 2-amino-5-((thiophen-2-ylmethylthio)methyl)thiophene-3-carboxylate] | 30 | IC50 [1, 7]: 99 ± 5 µM; IC50 (CEM cells; [8]): 3.3 ± 0.9 µM
30 | 55 | 1.2 | COC(=O)c1cc(CSc2ccc(-c3ccccc3)cc2)sc1N [TJ184, Methyl 2-amino-5-((biphenyl-4-ylthio)methyl)thiophene-3-carboxylate] | 46 | –
31 | 74 | 1.2 | COC(=O)c1cc(CSCCc2ccccc2)sc1N [TJ187, Methyl 2-amino-5-(phenethylthiomethyl)thiophene-3-carboxylate] | 62 | –
32 | 93 | 111 | COC(=O)c1cc(CSc2ccncc2)sc1N [TJ129, Methyl 2-amino-5-((pyridin-4-ylthio)methyl)thiophene-3-carboxylate] | 1 | –
33 | 55 | 0.57 | COC(=O)c1cc(CCCSC2CCCCC2)sc1N [TJ170, Methyl 2-amino-5-(3-(cyclohexylthio)propyl)thiophene-3-carboxylate] | 96 | –
34 | 49 | 0.34 | CCc1ccc(SCc2cc(C(=O)OC)c(N)s2)cc1 [TJ185, Methyl 2-amino-5-((4-ethylphenylthio)methyl)thiophene-3-carboxylate] | 144 | –
35 | 59 | 0.97 | COC(=O)c1cc(CCCSc2ccc(OC)cc2)sc1N [TJ169, Methyl 2-amino-5-(3-(4-methoxyphenylthio)propyl)thiophene-3-carboxylate] | 61 | –
36 | 88 | 3.9 | COC(=O)c1cc(CSc2ccc(OC)cc2)sc1N [TJ130, Methyl 2-amino-5-((4-methoxyphenylthio)methyl)thiophene-3-carboxylate] | 23 | IC50 [1, 7]: 88 ± 10 µM; IC50 (CEM cells; [8]): 3.9 ± 1.4 µM
37 | 46 | 0.46 | COC(=O)c1cc(CSc2ccc(C(C)C)cc2)sc1N [TJ186, Methyl 2-amino-5-((4-isopropylphenylthio)methyl)thiophene-3-carboxylate] | 100 | –
